The source of these data is patent US11149037B2, “Pyrazole MAGL inhibitors” (H. Lundbeck A/S, priority 2017, dated 2021).

As usually defined, the IC50 is the concentration needed to halve the response being measured.

Holding throughout (format): biochemical
For assay [1], the target named is FAAH (Homo sapiens (Human), UniProt O00519). Put plainly: In vitro competitive activity-based protein profiling, human proteomes (prefrontal cortex or PC3 cell membrane fractions). The note with it: human proteome; for inhibition at 1 µM: read-out: FAAH % inh. 1 μM (human). On the procedure: (§1) In Vitro Competitive Activity-Based Protein Profiling.
Chain of FAAH (Homo sapiens (Human), UniProt O00519) (O00519 whole entry): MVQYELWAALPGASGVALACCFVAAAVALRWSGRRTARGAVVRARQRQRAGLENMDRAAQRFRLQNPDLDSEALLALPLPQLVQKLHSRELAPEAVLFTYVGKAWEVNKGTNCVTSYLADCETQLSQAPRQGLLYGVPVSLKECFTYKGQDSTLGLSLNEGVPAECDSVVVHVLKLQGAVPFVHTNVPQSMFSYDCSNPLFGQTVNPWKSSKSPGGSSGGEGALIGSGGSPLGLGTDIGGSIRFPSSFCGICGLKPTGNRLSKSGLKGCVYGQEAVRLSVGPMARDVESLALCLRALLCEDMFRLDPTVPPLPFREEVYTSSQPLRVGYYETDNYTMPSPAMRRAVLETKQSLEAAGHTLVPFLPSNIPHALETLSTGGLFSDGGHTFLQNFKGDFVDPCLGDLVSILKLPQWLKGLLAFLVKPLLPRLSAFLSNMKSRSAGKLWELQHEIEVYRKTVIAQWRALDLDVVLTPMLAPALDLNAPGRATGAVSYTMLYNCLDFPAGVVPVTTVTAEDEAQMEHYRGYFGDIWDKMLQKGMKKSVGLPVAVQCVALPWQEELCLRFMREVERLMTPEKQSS
(§2) Proteomes (mouse brain membrane fraction or cell lysates for mouse assays; human prefrontal cortex or PC3 cell membrane fractions for human assays) (50 μL, 1.0 or 2.0 mg/mL total protein concentration) were preincubated with varying concentrations of inhibitors at 37° C. After 30 min, FP-Rh or JW912 or HT-01 (1.0 μL, 50 μM in DMSO) was added and the mixture was incubated for another 30 min at 37° C. Reactions were quenched with SDS loading buffer (15 μL-4×) and run on SDS-PAGE. Following gel imaging, serine hydrolase activity was determined by measuring fluorescent intensity of gel bands corresponding to MAGL and FAAH using ImageJ 1.43u software.

Assay [2] has as its target MAGL (Homo sapiens (Human), UniProt Q99685). The description is as above. The settings on record: human proteome; for inhibition at 10 µM: read-out: MAGL % inh. (human) @ 10 μM; for inhibition at 1 µM: read-out: MAGL % inh. 1 μM (human). The protocol: as §1, §2
Assay [3] addresses FAAH (Mus musculus (Mouse), UniProt O08914). Put plainly: In vitro competitive activity-based protein profiling, mouse proteomes (brain membrane fraction or cell lysates). The note with it: mouse proteome, read-out: FAAH % inh. 1 μM (mouse). The protocol:
as §1, §2

Assay [4] concerns the target MAGL (Mus musculus (Mouse), UniProt O35678). The description is as above. The settings on record: mouse proteome, read-out: MAGL % inh. 1 μM (mouse). The protocol:
as §1, §2

Chain of MAGL (Homo sapiens (Human), UniProt Q99685) (Q99685 whole entry): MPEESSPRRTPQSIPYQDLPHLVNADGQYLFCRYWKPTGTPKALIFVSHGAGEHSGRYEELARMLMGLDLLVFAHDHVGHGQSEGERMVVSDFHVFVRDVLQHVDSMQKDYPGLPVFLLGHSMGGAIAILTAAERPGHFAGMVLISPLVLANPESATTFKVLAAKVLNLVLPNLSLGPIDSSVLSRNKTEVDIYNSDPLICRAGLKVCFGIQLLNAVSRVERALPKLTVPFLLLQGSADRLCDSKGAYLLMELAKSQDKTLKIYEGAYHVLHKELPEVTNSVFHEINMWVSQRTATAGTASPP
Chain of MAGL (Mus musculus (Mouse), UniProt O35678) (O35678 whole entry): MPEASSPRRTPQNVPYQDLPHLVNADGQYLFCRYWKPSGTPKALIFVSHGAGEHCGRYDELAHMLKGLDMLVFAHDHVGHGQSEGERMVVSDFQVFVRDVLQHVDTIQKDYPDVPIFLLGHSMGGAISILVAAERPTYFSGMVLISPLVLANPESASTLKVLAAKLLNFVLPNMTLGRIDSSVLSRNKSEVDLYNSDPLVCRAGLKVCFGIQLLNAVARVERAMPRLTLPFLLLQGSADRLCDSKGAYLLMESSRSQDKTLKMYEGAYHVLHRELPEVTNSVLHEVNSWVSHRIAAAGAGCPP
Chain of FAAH (Mus musculus (Mouse), UniProt O08914) (O08914 whole entry): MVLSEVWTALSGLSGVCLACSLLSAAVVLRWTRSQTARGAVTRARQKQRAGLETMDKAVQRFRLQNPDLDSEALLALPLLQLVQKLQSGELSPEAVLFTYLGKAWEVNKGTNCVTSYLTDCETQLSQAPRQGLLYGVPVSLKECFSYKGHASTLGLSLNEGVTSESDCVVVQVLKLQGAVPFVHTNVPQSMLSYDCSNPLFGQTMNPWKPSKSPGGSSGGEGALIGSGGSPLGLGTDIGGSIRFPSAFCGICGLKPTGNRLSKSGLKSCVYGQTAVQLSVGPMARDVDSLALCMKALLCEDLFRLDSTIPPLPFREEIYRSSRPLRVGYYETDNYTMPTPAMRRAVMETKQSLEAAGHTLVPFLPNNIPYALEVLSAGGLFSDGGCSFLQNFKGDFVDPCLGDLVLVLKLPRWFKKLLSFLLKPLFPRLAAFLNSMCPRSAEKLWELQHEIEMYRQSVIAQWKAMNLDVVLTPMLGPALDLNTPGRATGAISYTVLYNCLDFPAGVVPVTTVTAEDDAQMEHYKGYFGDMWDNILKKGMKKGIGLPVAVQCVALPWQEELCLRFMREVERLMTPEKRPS

For `CS(=O)(=O)Nc1ccn(C(=O)N2CCC3(CCCN3Cc3ccc(C(F)(F)F)cc3NCCCC(=O)O)CC2)n1` [Example 1, 4-((2-((8-(3-(methylsulfonamido)-1H-pyrazole-1-carbonyl)-1,8-diazaspiro[4.5]decan-1-yl)methyl)-5-(trifluoromethyl)phenyl)amino)butanoic acid], the inhibition at 1 µM at FAAH [1], on FAAH [3] and at MAGL [4] was 0 to 25% throughout. Besides, on MAGL [2], the inhibition at 10 µM was greater than 75%.
Turning to `CN(Cc1ccc(C(F)(F)F)c(N2CCC(F)CC2)c1)C1(C)CCN(C(=O)n2ccc(NS(C)(=O)=O)n2)CC1` [Example 2, N-(1-(4-((3-(4-fluoropiperidin-1-yl)-4-(trifluoromethyl)benzyl)(methyl)amino)-4-methylpiperidine-1-carbonyl)-1H-pyrazol-3-yl)methanesulfonamide], the inhibition at 1 µM at FAAH [1] is 0 to 25%; on MAGL [2] it was greater than 75%; on FAAH [3] it was 0 to 25%; on MAGL [4], greater than 75%.
As to `CC(=O)Nc1ccn(C(=O)N2CCN(Cc3ccc(Cl)cc3OCC(=O)O)CC2)n1` [Example 3, 2-(2-((4-(3-acetamido-1H-pyrazole-1-carbonyl)piperazin-1-yl)methyl)-5-chlorophenoxy)acetic acid], the inhibition at 1 µM on FAAH [1] is 0 to 25%; on MAGL [2], greater than 75%; on FAAH [3], 0 to 25%; at MAGL [4], greater than 75%.
As to `CS(=O)(=O)Nc1ccn(C(=O)N2CCC(Oc3ccc(C(F)(F)F)c(-c4nnco4)c3)CC2)n1` [Example 5, N-(1-(4-(3-(1,3,4-Oxadiazol-2-yl)-4-(trifluoromethyl)phenoxy)piperidine-1-carbonyl)-1H-pyrazol-3-yl)methanesulfonamide], the inhibition at 1 µM is 0 to 25% on FAAH [1], greater than 75% at MAGL [2], 0 to 25% at FAAH [3] and greater than 75% on MAGL [4].
For `CS(=O)(=O)Nc1ccn(C(=O)N2CCC(Oc3ccc(Cl)c(OC4CCCC4)c3)CC2)n1` [Example 6, N-(1-(4-(4-chloro-3-(cyclopentyloxy)phenoxy)piperidine-1-carbonyl)-1H-pyrazol-3-yl)methanesulfonamide], the inhibition at 1 µM at FAAH [1] is 0 to 25%; at MAGL [2], greater than 75%; at FAAH [3], 0 to 25%; at MAGL [4], greater than 75%.
Regarding `CS(=O)(=O)Nc1ccn(C(=O)N2CCC(Oc3cccc(C(F)(F)F)c3-c3nnco3)CC2)n1` [Example 7, N-(1-(4-(2-(1,3,4-oxadiazol-2-yl)-3-(trifluoromethyl)phenoxy)piperidine-1-carbonyl)-1H-pyrazol-3-yl)methanesulfonamide], the inhibition at 1 µM on FAAH [1] was 0 to 25%; on MAGL [2] it was greater than 75%; at FAAH [3], 0 to 25%; at MAGL [4] it was greater than 75%.
For the molecule `CS(=O)(=O)Nc1ccn(C(=O)N2CCN(Cc3ccc(Cl)c(N4CC5(CCOCC5)C4)c3)CC2)n1` [Example 8, N-(1-(4-(4-chloro-3-(7-oxa-2-azaspiro[3.5]nonan-2-yl)benzyl)piperazine-1-carbonyl)-1H-pyrazol-3-yl)methanesulfonamide], the inhibition at 1 µM on FAAH [1] was 0 to 25%; on MAGL [2], greater than 75%; on FAAH [3], 0 to 25%; on MAGL [4] it was greater than 75%.
Take `CS(=O)(=O)Nc1ccn(C(=O)N2CCN(Cc3ccc(Cl)c(N4CC5CN(C(N)=O)CC5C4)c3)CC2)n1` (stereo not drawn) [Example 9, 5-(2-Chloro-5-((4-(3-(methylsulfonamido)-1H-pyrazole-1-carbonyl)piperazin-1-yl)methyl)phenyl)hexahydropyrrolo[3,4-c]pyrrole-2(1H)-carboxamide]: the inhibition at 1 µM at FAAH [1] is 0 to 25%; on MAGL [2], greater than 75%; at FAAH [3], 0 to 25%; on MAGL [4], greater than 75%.
For `CS(=O)(=O)Nc1ccn(C(=O)N2CCN(Cc3ccc(C(N)=O)c(C(F)(F)F)c3)CC2)n1` [Example 10, 4-((4-(3-(methylsulfonamido)-1H-pyrazole-1-carbonyl)piperazin-1-yl)methyl)-2-(trifluoromethyl)benzamide], the inhibition at 1 µM at FAAH [1], on FAAH [3] and at MAGL [4] was 0 to 25% each time. The inhibition at 10 µM on MAGL [2] lay within 50 to 75%.
On to `CC(=O)Nc1ccn(C(=O)N2CCC3(CCCN3Cc3cc4cc(Cl)cc(Cl)c4[nH]3)CC2)n1` [Example 13, N-(1-(1-((5,7-dichloro-1H-indol-2-yl)methyl)-1,8-diazaspiro[4.5]decane-8-carbonyl)-1H-pyrazol-3-yl)acetamide], for which the half-maximal inhibitory concentration (IC50) on FAAH [1] was 1 to 10 µM; at MAGL [2], less than 0.1 µM. Moreover, the inhibition at 1 µM is 25 to 50% at FAAH [3] and greater than 75% at MAGL [4].
Take `CS(=O)(=O)Nc1ccn(C(=O)N2CCC(Oc3ccc(C(F)(F)F)cc3-c3nccs3)CC2)n1` [Example 15, N-(1-(4-(2-(thiazol-2-yl)-4-(trifluoromethyl)phenoxy)piperidine-1-carbonyl)-1H-pyrazol-3-yl)methanesulfonamide]: the inhibition at 1 µM on FAAH [1] is 0 to 25%; at MAGL [2], greater than 75%; on FAAH [3], 25 to 50%; on MAGL [4] it was greater than 75%.
Consider `CC(=O)Nc1ccn(C(=O)N2CC3CN(Cc4cc(Cl)cc(C(C)(C)O)c4)CC3C2)n1` (stereo not drawn) [Example 16, N-(1-(5-(3-chloro-5-(2-hydroxypropan-2-yl)benzyl)octahydropyrrolo[3,4-c]pyrrole-2-carbonyl)-1H-pyrazol-3-yl)acetamide], for which the inhibition at 1 µM at FAAH [1] is 25 to 50%; on MAGL [2], greater than 75%; on FAAH [3], 25 to 50%; on MAGL [4] it was greater than 75%.
Consider `CC(=O)Nc1ccn(C(=O)N2CCN(Cc3cc(Cl)cc(Oc4ccc(Cl)cc4)c3)CC2)n1` [Example 17, N-(1-(4-(3-chloro-5-(4-chlorophenoxy)benzyl)piperazine-1-carbonyl)-1H-pyrazol-3-yl)acetamide], for which the inhibition at 1 µM on FAAH [1], at MAGL [2], on FAAH [3] and at MAGL [4] was greater than 75% throughout.
As to `C[C@@H]1C[C@H](N(C)Cc2ccc(Cl)c(N3CC4COCC4C3)c2)CCN1C(=O)n1ccc(NS(C)(=O)=O)n1` (stereo partly drawn) [Example 27, N-(1-((2R,4R)-4-((4-chloro-3-(tetrahydro-1H-furo[3,4-c]pyrrol-5(3H)-yl)benzyl)(methyl)amino)-2-methylpiperidine-1-carbonyl)-1H-pyrazol-3-yl)methanesulfonamide], on MAGL [2], the inhibition at 10 µM lay in the range of 0 to 25%. For the same molecule, the inhibition at 1 µM at FAAH [3] and at MAGL [4] was 0 to 25% in each case.
As for `CS(=O)(=O)Nc1ccn(C(=O)N2CCC(OCc3ccc(N4CCC(F)CC4)c(Cl)c3)CC2)n1` [Example 30, N-(1-(4-((3-chloro-4-(4-fluoropiperidin-1-yl)benzyl)oxy)piperidine-1-carbonyl)-1H-pyrazol-3-yl)methanesulfonamide], the inhibition at 1 µM at MAGL [2], on FAAH [3] and on MAGL [4] was greater than 75% in each case.
`C[C@H]1CN(C(=O)n2ccc(NS(C)(=O)=O)n2)CCN1Cc1cnc(C(F)(F)F)c(N2CCC(F)CC2)c1` [Example 33, (S)—N-(1-(4-((5-(4-fluoropiperidin-1-yl)-6-(trifluoromethyl)pyridin-3-yl)methyl)-3-methylpiperazine-1-carbonyl)-1H-pyrazol-3-yl)methanesulfonamide]: the inhibition at 1 µM at MAGL [2] is greater than 75%; at FAAH [3], 0 to 25%; at MAGL [4] it was greater than 75%.
As to `CC(C)C(=O)Nc1ccn(C(=O)N2CCN(Cc3ccc(C(F)(F)F)cc3N3CCCC3)CC2)n1` [Example 161, N-(1-(4-(2-(Pyrrolidin-1-yl)-4-(trifluoromethyl)benzyl)piperazine-1-carbonyl)-1H-pyrazol-3-yl)isobutyramide], the figures for the inhibition at 1 µM on FAAH [3] and on MAGL [4] were 0 to 25% and greater than 75%, respectively.
`CC(=O)Nc1ccn(C(=O)N2CC3CN(Cc4ccc(Cl)cc4)CC3C2)n1` (stereo not drawn) [Example 170, N-(1-(5-(4-Chlorobenzyl)octahydropyrrolo[3,4-c]pyrrole-2-carbonyl)-1H-pyrazol-3-yl)acetamide]: the inhibition at 1 µM on FAAH [3] is 50 to 75%; on MAGL [4], greater than 75%.
As for `CC(=O)Nc1ccn(C(=O)N2CC3CN(Cc4ccc(N5CCOCC5)c(C(F)(F)F)c4)CC3C2)n1` (stereo not drawn) [Example 171, N-(1-(5-(4-Morpholino-3-(trifluoromethyl)benzyl)octahydropyrrolo[3,4-c]pyrrole-2-carbonyl)-1H-pyrazol-3-yl)acetamide], the inhibition at 1 µM was 50 to 75% on FAAH [3] and greater than 75% at MAGL [4].
Turning to `CC(=O)Nc1ccn(C(=O)N2CC3CN(Cc4ccc(Cl)cc4Cl)CC3C2)n1` (stereo not drawn) [Example 174, N-(1-(5-(2,4-Dichlorobenzyl)octahydropyrrolo[3,4-c]pyrrole-2-carbonyl)-1H-pyrazol-3-yl)acetamide], the inhibition at 1 µM at FAAH [3] is 50 to 75%; on MAGL [4], greater than 75%.
